Measurements from patent US20050037074A1, “Delayed and sustained drug release” (priority 2001, published 2005).
Like-named read-outs stand apart in the source and are kept apart here. Marks after values point to notes of the source that are not given here.

What was measured:
[1] = 20 mg hydrocortisone, cited from earlier work
[2] = Study 1: pharmacokinetics of 10 mg fixed dose oral HC in adrenal-insufficient patients; type: in vivo, human; conditions: for oral clearance / half-life: 10 mg oral, mean±S.E.M.; for Bias (AUC), % difference from healthy matched controls / Variability in AUC (C.V.) / Variability in Cmax (C.V.): Fixed 10 mg, listed as HC; for half-life: both sexes, human, serum, po, 10 mg, read-out: absorption half-life
Procedure: (§1) Serum was separated from blood samples immediately after collection and stored at minus 20° C. until analysis. Cortisol concentrations were measured using an ACS:180 automatic chemiluminescence system (Kiron Diagnostic Corporation, East Walpole, USA). Intra- and inter-assay coefficients of variation were less than 7.6%.
(§2) The study was carried out in two groups of adrenal-insufficient patients, and a group of healthy subjects. It was approved by the North Sheffield Local Research Ethics Committee, and all participants gave written informed consent. All patients had primary or secondary adrenal insufficiency based on a 0900 h serum cortisol level off treatment of less than 50 nmol/l. Normal controls were matched to the second group of patients for gender, age, height, weight and BSA within 10% of individual patients. Patients on oestrogen replacement were studied after having stopped oestrogen for 6 weeks.
Study 1—Pharmacokinetics of 10 mg fixed dose oral HC: Ten patients (5M, 5F, Age 32-72 yrs, BMI 21.7-35.8 kg/m^2) attended the Programmed Investigation Unit on 3 occasions. They discontinued HC replacement from noon on the day prior to the study and fasted from midnight. On the first and third occasions, the patients fasted throughout the study and, on the second occasion, they received a standard breakfast 20-30 minutes before receiving HC. On each of the 3 study days, patients received 10 mg of HC (Hydrocortone™, Merck, Sharp and Dohme) orally, between 0800-0900 h. Peripheral venous blood samples were taken immediately before dosage and at 20, 40, 50, 60, 70, 80, 90, 100, 120, 180, 240, 300 and 360 minutes after dosage; the serum was collected and stored pending assay for HC.
(§3) Kinetic analysis of the serum cortisol concentration-time profiles in the patients was carried out using the software package, P-Pharm (version 1.5, InnaPhase, France), assuming mono-exponential disposition, first-order absorption, and a baseline correction to account for any endogenous levels of cortisol. Values of oral clearance (CL/F), volume of distribution (V/F), absorption rate constant (ka) and absorption lag time (tlag) were obtained from the model fitting and were used to derive other parameter values. Bias in dosing was assessed as the percentage difference in AUC values in patients compared to the AUC of endogenous cortisol in the healthy subjects over the same time period. Variability in the features of the serum cortisol concentration-time profile in the patients was expressed as coefficient of variation (CV). The effect of food intake in Study 1 was assessed using ANOVA, accounting for repeat individual measurements in the fasting state. Body surface area, weight, height, BMI, dose of HC, gender and age were also investigated as co-variables. All statistical analyses were carried out using SPSS version 10.0 (SPSS Inc, USA).

[3] = in vivo; cited from earlier work
[4] = cited from earlier work
[5] = Study 2: pharmacokinetics of individually tailored (BSA- or weight-adjusted) dose of oral HC in adrenal-insufficient patients; type: in vivo, human; conditions: fasted
Procedure: as §1, §2
Study 2—Pharmacokinetics of individually tailored dose of oral HC and testing of monitoring protocol: A further 10 patients (6M, 4F; 46-68 y; BMI 24.4-35.5 kg/m^2) were studied after receiving HC doses of 5.5 mg/m^2 BSA (to the nearest practical dose unit) at 0830 h, 1 h before breakfast. The dosage was derived from analysis of the Study 1 data to minimise inter-subject variability. A tablet cutter was used to adjust the HC dose in 2.5 mg quanta, i.e. quarters of 10 mg tablets. Thus, the absolute dose ranged from 7.5 to 12.5 mg. Blood sampling was as in Study 1. Serum concentrations of endogenous cortisol were measured in 7 healthy subjects (3M, 4F; 44-68 y; BMI 23.2-28.7 kg/m^2) at the same time points as the patients but without ingestion of HC.
Owing to the discrete nature of dose increments (multiples of 2.5 mg) 9 of the 10 patients who had taken the BSA-adjusted HC dose would still require the same dose if this had been weight-adjusted. Only one of the 10 patients needed a reduction in the HC dose from 12.5 mg to 10.0 mg to be in the nearest weight-adjusted dose range.
Therefore, in the part of our analysis that was related to body weight-adjusted doses, the serum cortisol levels of this patient were normalised to a 10.0 mg dose assuming concentration-dose proportionality.
as §3

ACTH = test: Circadian hydrocortisone infusion in a patient with congenital adrenal hyperplasia (CAH), ACTH and 17-OH progesterone; type: in vivo, human
Procedure: A treatment regime involves the following protocol. A patient begins a treatment regime at 0830 having taken normal medication the day before. An indwelling cannula is inserted into the patient and basal blood samples are obtained to determine basal levels of cortisol. An infusion cannula is inserted for the administration of a bolus dose of hydrocortisone. Hydrocortisone is administered by infusion once basal samples taken (Patient details: body weight=113 kg; iv bolus 24 mg at 09:00 and follow the infusion rates changed on hourly bases). Total dose for the 1st day is 34.3 mg and 21.8 mg is given by 09:00 in the 2nd day). Samples are taken from the patient periodically from 0900 to 0900 and sampled hourly for cortisol, and ACTH
Dilute 100 mg of hydrocortisone in 2 ml of water for injection (concentration 1 mg/20 ul). Give bolus injection of 24 mg hydrocortisone (480 ul or 0.48 ml of hydrocortisone) using a 1 ml insulin syringe. Flush through with normal saline. For infusion put 50 mg of hydrocortisone (1 ml) in 49 mls normal saline=1 mg/ml and the run infusion according to the protocol above.
as §1
The method comprised the infusion of a patient suffering from CAH with hydrocortisone and the measurement of cortisol and ACTH levels. The patient is a person with CAH who is currently treated with oral hydrocortisone.
The infusion protocol for the patient is described in FIG. 5. […] Concomitant with the fall in ACTH the 17-OH progesterone fell from >500 nmol/l to a nadir of 67 nmol/l.

[6] = Weight-adjusted (0.12 mg/kg), if weight adjustment was assumed

oral clearance ([2]; fasted): 0.270 ± 0.027 L/min
oral clearance ([2]; fed): 0.226 ± 0.031 L/min
Bias (AUC), % difference from healthy matched controls ([2]; fasted): 6.3%
Variability in AUC (C.V.) ([2]; fasted): 50%
Variability in Cmax (C.V.) ([2]; fasted): 31%
Bias (AUC), % difference from healthy matched controls ([2]; fed): 24.5%
Variability in AUC (C.V.) ([2]; fed): 45%
Variability in Cmax (C.V.) ([2]; fed): 36%
half-life ([2]; fasted): 15 ± 4 min
half-life ([2]; fed): 43 ± 12 min
Bias (AUC), % difference from healthy matched controls ([5]; BSA-adjusted (5.5 mg/m^2)): 7.4%
Variability in AUC (C.V.) ([5]; BSA-adjusted (5.5 mg/m^2)): 24%**
Variability in Cmax (C.V.) ([5]; BSA-adjusted (5.5 mg/m^2)): 10%*
Variability in AUC (C.V.) [5, 6]: 22%**
Variability in Cmax (C.V.) [5, 6]: 7%*
SMILES: C[C@]12CCC(=O)C=C1CC[C@@H]1[C@@H]2[C@@H](O)C[C@@]2(C)[C@H]1CC[C@]2(O)C(=O)CO [hydrocortisone, Hydrocortisone]
half-life ([1]; IV administration): 102 min
total body clearance ([1]; IV administration): 18 L/h
volume of distribution ([1]; IV administration): 34 L
Oral bioavailablity ([1]; oral vs IV, average): 96%
time to maximum levels (absorption) ([1]; oral): 1 h
oral bioavailability [3]: 94-96%
circulating cortisol bound to CBG ([4]; basal conditions, plasma): about 75%
cortisol and metabolites conjugated in the liver and excreted in the urine ([4]; in vivo): Over 90%
cortisol excreted in the urine unchanged ([4]; in vivo): less than 1%
17-OH progesterone before the fall (ACTH; CAH patient on conventional oral hydrocortisone therapy, start of infusion): > 500 nmol/L
17-OH progesterone nadir (ACTH; CAH patient, during hydrocortisone infusion): 67 nmol/L
morning ACTH after overnight increase in cortisol (ACTH; CAH patient, infusion simulating delayed and sustained release hydrocortisone): prevents the high morning ACTH
ACTH during the infusion (ACTH; CAH patient, iv bolus 24 mg then circadian infusion): rapidly falls
